According to patent publication US20100104664A1, “TREATMENT OF CHRONIC RENAL FAILURE AND OTHER CONDITIONS IN DOMESTIC ANIMALS: COMPOSITIONS AND METHODS” (priority 2005, published 2010):

Legend:
adult beagle dogs = assay: Dog study, urine phosphate excretion; assay type: in vivo; settings: 2250 mg elemental lanthanum twice daily, oral capsules, cross-over; urine approximately 24 hours after dosing
Description: Six adult beagle dogs were dosed orally with capsules of lanthanum oxycarbonate LaCO3OH (compound A) or La2O2CO3 (compound B) in a cross-over design using a dose of 2250 mg elemental lanthanum twice daily (6 hours apart). The doses were administered 30 minutes after provision of food to the animals. At least 14 days washout was allowed between the crossover arms. Plasma was obtained pre-dose and 1.5, 3, 6, 7.5, 9, 12, 24, 36, 48, 60, and 72 hours after dosing and analyzed for lanthanum using ICP-MS. Urine was collected by catheterization before and approximately 24 hours after dosing and creatinine and phosphorus concentrations measured.

[1] = physical and chemical properties of the phosphate binder; assay type: physicochemical
Source text: The combination compositions of the present invention are benefited by the physical and chemical properties of the phosphate binders.

dogs = assay: Palatability study in dogs; assay type: in vivo, dog; settings: during hours post meal, 9 dogs
Source text: Lanthanum oxycarbonate was mixed with wet and dry dog food and presented to 9 different dogs, almost all over 40 pounds.

[2] = tested on: Sprague-Dawley rats with 5/6th nephrectomy; assay: In vivo study in 5/6th nephrectomy rats, urine phosphorus excretion; design: species or system rat; settings: 314 mg elemental lanthanum/kg/day, oral lavage once daily for 14 days; compared to untreated rats
Description: Groups of six adult Sprague-Dawley rats underwent ⅚th nephrectomy in two stages over a period of 2 weeks and were then allowed to recover for a further two weeks prior to being randomized for treatment. The groups received vehicle (0.5% w/v carboxymethyl cellulose), or lanthanum oxycarbonate suspended in vehicle, once daily for 14 days by oral […] (10 ml/kg/day). The dose delivered 314 mg elemental lanthanum/kg/day. Dosing was carried out immediately before the dark (feeding) cycle on each day. Urine samples (24 hours) were collected prior to surgery, prior to the commencement of treatment, and twice weekly during the treatment period. Volume and phosphorus concentration were measured.
Feeding—During the acclimatization and surgery period, the animals were given Teklad phosphate sufficient diet (0.5% Ca, 0.3% P; Teklad No. TD85343), ad libitum. At the beginning of the treatment period, animals were pair fed based upon the average food consumption of the vehicle-treated animals the previous week.
⅚ Nephrectomy—After one week of acclimatization, all animals were subjected to ⅚ nephrectomy surgery. The surgery was performed in two stages. First, the two lower branches of the left renal artery were ligated. One week later, a right nephrectomy was performed. […]

Compound | urine phosphate excretion, a marker of phosphorous binding (adult beagle dogs) | stability at high temperatures [1] | solubility in aqueous media ([1]; pH above 2.0) | signs of nausea, vomiting, bloating or flatus (dogs) | phosphorus excretion (urine), a marker of dietary phosphorus binding [2]
O=C([O-])[O-].[La+3].[La+3].[O-2].[O-2] [compound B, La2O2CO3] | reduction of urine phosphate excretion |  |  |  | 
lanthanum oxycarbonate |  | stable at high temperatures | sparingly soluble | None of the dogs exhibited signs of nausea, vomiting, bloating or flatus | decrease in phosphorus excretion
O=C([O-])[O-].[La+3].[OH-] [lanthanum carbonate hydroxide] |  |  |  |  | decrease in phosphorus excretion
O=C([O-])[O-].[La+3].[OH-] [compound A, LaCO3OH] | reduction of urine phosphate excretion |  |  |  | 
